The numbers were not newly measured in patent US20040052855A1, “Microparticles of biodegradable polymer encapsulating a biologically active substance and sustained release pharmaceutical formulations containing same” (priority 2003, published 2004), which cites them from elsewhere.

The conditions of the data set: in water at 20-25° C.

Take `CCOC(C)=O` [ethyl acetate]: the solubility in water was 8.70 % (by weight).
Regarding `ClCCl` [dichloromethane], the solubility in water is on record as 1.32 % (by weight).
